The values below come from ChEMBL document CHEMBL1137678, “Comparative study of the trypanocidal activity of the methyl 1-nitrophenyl-1,2,3,4-9H-tetrahydro-beta-carboline-3-carboxylate derivatives and benznidazole using theoretical calculations and cyclic voltammetry” (Eur J Med Chem, 2009).

pIC50: −log10 of the molar value. Some results are limits rather than exact numbers.

One test concerns Trypanosoma cruzi. Description: Antitrypanosomal activity against epimastigotes of Trypanosoma cruzi Y after 96 hrs by Neubauer haemocytometer. It counts as functional, organism-based.
The nature of test [1]: Selectivity index, ratio of CC50 for monkey LLC-MK2 cells to IC50 for epimastigotes of Trypanosoma cruzi Y. It counts as functional.
The nature of test [2]: Selectivity index, ratio of CC50 for mouse J774.G8 cells to IC50 for epimastigotes of Trypanosoma cruzi Y. It counts as functional.

On to `COC(=O)[C@@H]1Cc2c([nH]c3ccccc23)[C@@H](c2cccc([N+](=O)[O-])c2)N1` (relative stereo), for which the negative logarithm of the IC50 (pIC50) (as a rule, the negative decadic logarithm of the IC50, by convention in mol/L) with Trypanosoma cruzi was 4.65. Moreover, the “Selectivity Index” value in test [1] came to 25.6; in test [2] it was 35.7. As for `COC(=O)[C@@H]1Cc2c([nH]c3ccccc23)[C@H](c2ccc([N+](=O)[O-])cc2)N1` (relative stereo), in the test on Trypanosoma cruzi, the negative logarithm of the IC50 (pIC50) is 4.37. Same read-out and setting: next, `COC(=O)[C@@H]1Cc2c([nH]c3ccccc23)[C@@H](c2ccc([N+](=O)[O-])cc2)N1` (relative stereo): below 4.00; `COC(=O)[C@@H]1Cc2c([nH]c3ccccc23)[C@H](c2cccc([N+](=O)[O-])c2)N1` (relative stereo): 4.03.
